Measured values as given in US20050244938A1, “Manzamine-producing actinomycetes” (priority 2002, published 2005).
In brackets after ≈: the same amount, converted by molar mass. Where two headings read alike, the source gives them in different places.

How the values were obtained:
[1] = tested on: Mycobacterium tuberculosis (H37Rv); assay: microplate Alamar Blue assay, in vitro activity against Mycobacterium tuberculosis; assay type: cell-based
[2] = tested on: Plasmodium falciparum (D6 clone); assay: in vitro antimalarial activity, D6 clone; assay type: cell-based; conditions: for IC50: Plasmodium falciparum
[3] = tested on: P. falciparum (chlorine-resistant W2 clone); assay: in vitro antimalarial activity, resistant W2 clone; assay type: cell-based, Plasmodium falciparum; conditions: NA = not active; for IC50: Plasmodium falciparum, read-out: P. falciparum (chlorine-resistant W2 clone) in vitro IC 50
[4] = tested on: Nocardia sp. ATCC 21145; assay: microbial transformation study to model human metabolism; conditions: monitored by TLC, metabolite identical to ent-12,34-oxamanzamine F (2)
Procedure: (§1) In order to model the human metabolism of the manzamines and to generate additional analogs for biological evaluation, microbial transformation studies were performed for ent-8-hydroxymanzamine A (El Sayed, et al., 2001) (3). Thirty-three growing microbial cultures were screened for their potential to bioconvert 3 to new metabolites.

[5] = tested on: Fusarium oxysporium ATCC 7601; assay: as above; conditions: monitored by TLC, metabolite identical to ent-12,34-oxamanzamine F (2)
Procedure: as §1

[6] = toxicity (no method); conditions: qualitative statement
[7] = D6 clone, in vitro, NA = not active

Compound	Mycobacterium tuberculosis (H37Rv) MIC [1] [µg/mL]	Plasmodium falciparum (D6 clone) in vitro IC 50 [2, 7] [µg/mL]	P. falciparum (chlorine-resistant W2 clone) in vitro IC 50 [3] [µg/mL]	further results
O=CC1=C[C@@]2(O)CC/C=C\CCCCN3CC[C@@H]1[C@]1(CC4/C=C\CCCCN4[C@H]12)C3 (some centres unmarked) [Ircinal A, ircinal A]	30.2			
O=C1CCCN2[C@@H](CC1)C[C@]13CN4CCCC/C=C\CC[C@](O)(C=C(c5nccc6c5[nH]c5c(O)cccc56)C1CC4)[C@H]23 (some centres unmarked) [Manzamine F, manzamine F]	2.56	0.78	1.7	
O[C@]12C=C(c3nccc4c3[nH]c3ccccc34)[C@@H]3CCN(CCCC/C=C\CC1)C[C@@]31C[C@@H]3/C=C\CCCCN3[C@H]12 [Manzamine A, manzamine A]	1.53	0.0045	0.008	
CCN(CC)CCCC(C)Nc1ccnc2cc(Cl)ccc12 (centres unmarked) [Chloroquine]				IC50 ([2]; D6, read-out: Plasmodium falciparum (D6 clone) in vitro IC 50): 0.0155 µg/mL (≈ 0.0485 µM); IC50 [3]: 0.17 µg/mL (≈ 0.531 µM)
(+)-8-hydroxymanzamine A	0.91	0.006	0.008	
ent-8-hydroxymanzamine A [ent-8-hydroxymanzamine A (3)]	3.13			bioconversion by growing microbial culture [4]: exhaustively metabolize; bioconversion by growing microbial culture [5]: exhaustively metabolize
C[C@@H]1CC[C@H]2[C@@H](C)C(=O)O[C@@H]3O[C@@]4(C)CC[C@@H]1[C@]32OO4 [Artemisinin]				IC50 ([2]; D6 clone, in vitro, NA = not active, read-out: Plasmodium falciparum (D6 clone) in vitro IC 50): 0.01 µg/mL (≈ 0.0354 µM); IC50 [3]: 0.0063 µg/mL (≈ 0.0223 µM)
O[C@]12C=C(c3nccc4c3[nH]c3ccccc34)C3CCN(CCCC/C=C\CC1)C[C@@]31C[C@]34CC[C@H](CCCN3[C@H]12)O4 (some centres unmarked) [6-Deoxymanzamine X, 6-deoxymanzamine X]	1.77	1.3	1.4	
O=C1CCCN2[C@@H](CC1)C[C@]13CN4CCCC/C=C\CC[C@](O)(C=C(c5nccc6c5[nH]c5ccccc56)[C@@H]1CC4)[C@H]23 [Manzamine E, manzamine E]	3.76	3.4	4.76	
O=C1CCCN2[C@H]3[C@]45CN6CCCC/C=C\CC[C@]3(C=C(c3nccc7c3[nH]c3c(O)cccc37)[C@H]4CC6)O[C@]2(CC1)C5 (single isomer, unassigned; ent-12) [ent-12,34-Oxamanzamine F (2), ent-12,34-oxamanzamine F]	12.5	0.84	1.1	
ent-12,34-oxamanzamine E [ent-12,34-Oxamanamine E (1)]	128			
C1=C(c2nccc3c2[nH]c2ccccc23)[C@@H]2CCN3CCCC/C=C\CC[C@]14O[C@@]15/C=C\CCCCN1[C@@H]4[C@]2(C3)C5 [12,34-oxamanzamine A (4), 12,34-oxamanzamine A]		4.76		
ircinol A	1.93	2.4	3.1	toxicity [6]: minimal toxicity
